Test results from US6472348B1, “Pyridone derivatives and herbicides” (Kumiai Chemical Industry Co., Ltd., priority 1996, dated 2002).

Tests used:
pale smartweed (Po) [1] = assay: Test Example 3: herbicidal effects by upland field foliage treatment; assay type: in vivo; design: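 grade of growth control; 5 = at least 90%; 4 = 70 to 90%; 3 = 50 to 70%; 2 = 30 to 50%; 1 = 10 to 30%; 0 = under 10%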; settings: 100 g active ingredient per 10 ares, evaluated 14th day after treatment
Procedure, shortened: (§1)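 Pot culture: sand, 120 cm^2 surface; seeds sown, soil-covered, greenhouse 2 weeks. Foliage treatment applied at that stage. Herbicidal effect rated by standard scale, day 14 post-treatment.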

[2] = system: common lambsquarters (Ch); assay: as above; assay type: in vivo; design: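 grade of growth control; 5 = at least 90%; 4 = 70 to 90%; 3 = 50 to 70%; 2 = 30 to 50%; 1 = 10 to 30%; 0 = under 10%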; settings: 100 g active ingredient per 10 ares, evaluated 14th day after treatment
Procedure, shortened: as §1

barnyardgrass (Ec) [3] = assay: as above; assay type: in vivo; design: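 grade of growth control; 5 = at least 90%; 4 = 70 to 90%; 3 = 50 to 70%; 2 = 30 to 50%; 1 = 10 to 30%; 0 = under 10%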; settings: 100 g active ingredient per 10 ares, evaluated 14th day after treatment
Procedure, shortened: as §1

rice flatsedge (Ci) [4] = assay: as above; assay type: in vivo; design: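 grade of growth control; 5 = at least 90%; 4 = 70 to 90%; 3 = 50 to 70%; 2 = 30 to 50%; 1 = 10 to 30%; 0 = under 10%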; settings: 100 g active ingredient per 10 ares, evaluated 14th day after treatment
Procedure, shortened: as §1

slender amaranth (Am) [5] = assay: as above; assay type: in vivo; design: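 grade of growth control; 5 = at least 90%; 4 = 70 to 90%; 3 = 50 to 70%; 2 = 30 to 50%; 1 = 10 to 30%; 0 = under 10%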; settings: 100 g active ingredient per 10 ares, evaluated 14th day after treatment
Procedure, shortened: as §1

Diaitaria ciliaris (Di) = assay: as above; assay type: in vivo; design: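 grade of growth control; 5 = at least 90%; 4 = 70 to 90%; 3 = 50 to 70%; 2 = 30 to 50%; 1 = 10 to 30%; 0 = under 10%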; settings: 100 g active ingredient per 10 ares, evaluated 14th day after treatment
Procedure, shortened: as §1

pale smartweed (Po) [6] = assay: Test Example 2: herbicidal effects by upland field soil treatment; assay type: in vivo; settings: 100 g of the active ingredient per 10 ares, evaluated on the 21st day after application;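 further: grade of growth control; 5 = at least 90%; 4 = 70 to 90%; 3 = 50 to 70%; 2 = 30 to 50%; 1 = 10 to 30%; 0 = under 10%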
From the text: (§2) (Test on Herbicidal Effects by Upland Field Soil Treatment)

[7] = system: common lambsquarters (Ch); assay: as above; assay type: in vivo; settings: 100 g of the active ingredient per 10 ares, evaluated on the 21st day after application
From the text: as §2

Digitaria ciliaris (Di) = assay: as above; assay type: in vivo; settings: 100 g of the active ingredient per 10 ares, evaluated on the 21st day after application;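 further: grade of growth control; 5 = at least 90%; 4 = 70 to 90%; 3 = 50 to 70%; 2 = 30 to 50%; 1 = 10 to 30%; 0 = under 10%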
From the text: as §2

barnyardgrass (Ec) [8] = assay: as above; assay type: in vivo; settings: 100 g of the active ingredient per 10 ares, evaluated on the 21st day after application
From the text: as §2

rice flatsedge (Ci) [9] = assay: as above; assay type: in vivo; settings: 100 g of the active ingredient per 10 ares, evaluated on the 21st day after application
From the text: as §2

slender amaranth (Am) [10] = assay: as above; assay type: in vivo; settings: 100 g of the active ingredient per 10 ares, evaluated on the 21st day after application
From the text: as §2

barnyardgrass (Ec) [11] = assay: Test Example 1: herbicidal effects by paddy field soil treatment; assay type: in vivo; settings: 100 g of the active ingredient per 10 ares, 21st day after the application, index 0-5 of Table 47;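 further: grade of growth control; 5 = at least 90%; 4 = 70 to 90%; 3 = 50 to 70%; 2 = 30 to 50%; 1 = 10 to 30%; 0 = under 10%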
Procedure, shortened: (§3)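 Greenhouse pot test in flooded paddy soil, dosed at 100 g a.i. per 10 ares; effect scored on day 21.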

bulrush (Sc) = assay: as above; assay type: in vivo; settings: 100 g of the active ingredient per 10 ares, 21st day after the application, index 0-5 of Table 47;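 further: grade of growth control; 5 = at least 90%; 4 = 70 to 90%; 3 = 50 to 70%; 2 = 30 to 50%; 1 = 10 to 30%; 0 = under 10%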
Procedure, shortened: as §3

monochoria (Mo) = assay: as above; assay type: in vivo; settings: 100 g of the active ingredient per 10 ares, 21st day after the application, index 0-5 of Table 47
Procedure, shortened: as §3

| SMILES | melting point [°C] | Herbicidal effects Po (pale smartweed (Po) [1]) | Herbicidal effects Ch [2] | Herbicidal effects Ec (barnyardgrass (Ec) [3]) | Herbicidal effects Ci (rice flatsedge (Ci) [4]) | Herbicidal effects Am (slender amaranth (Am) [5]) | Herbicidal effects Di (Diaitaria ciliaris (Di)) | Herbicidal effects Po (pale smartweed (Po) [6]) | Herbicidal effects Ch [7] | Herbicidal effects Di (Digitaria ciliaris (Di)) | Herbicidal effects Ec (barnyardgrass (Ec) [8]) | Herbicidal effects Ci (rice flatsedge (Ci) [9]) | Herbicidal effects Am (slender amaranth (Am) [10]) | Herbicidal effects Ec (barnyardgrass (Ec) [11]) | Herbicidal effects Sc (bulrush (Sc)) | Herbicidal effects Mo (monochoria (Mo)) |
| --- | --- | --- | --- | --- | --- | --- | --- | --- | --- | --- | --- | --- | --- | --- | --- | --- |
| CCCC(O)c1cc(-c2ccc(C(F)(F)F)n(C)c2=O)c(F)cc1Cl (stereo not shown) [Compound No. 1-193, 3-[4-chloro-2-fluoro-5-(1-hydroxybutyl)phenyl]-1-methyl-6-trifluoromethyl-2(1H)-pyridone] | 120 to 122 | 5 | 5 | 5 | 5 | 5 | 5 | 5 | 5 | 5 | 5 | 5 | 5 | 5 | 5 | 5 |
| Cc1cc2c(Cl)cc(F)c(-c3ccc(C(F)(F)F)n(C)c3=O)c2o1 [Compound No. 5-1, 3-(4-chloro-6-fluoro-2-methylbenzofuran-7-yl)-1-methyl-6-trifluoromethyl-2 (1H)-pyridone] | 138 to 140 | 5 | 5 | 5 | 5 | 5 | 5 | 5 | 5 | 5 | 5 | 5 | 5 | 5 | 5 | 5 |
| CC(C)Oc1cc(-c2cn(C)c(C(F)(F)F)cc2=O)c(F)cc1Cl [Compound No. 6-7, 5-(4-chloro-2-fluoro-5-isopropoxyphenyl)-1-methyl-2-trifluoromethyl-4(1H)-pyridone] | 150 to 151 | 5 | 5 | 5 | 5 | 5 | 5 | 5 | 5 | 5 | 5 | 5 | 5 | 5 | 5 | 5 |
| Cn1cc(-c2cc(OC3CCCC3)c(Cl)cc2F)c(=O)cc1C(F)(F)F [Compound No. 6-14, 5-(4-chloro-2-fluoro-5-cyclopentyloxyphenyl)-1-methyl-2-trifluoromethyl-4(1H)-pyridone] | 152 to 154 | 5 | 5 | 5 | 5 | 5 | 5 | 5 | 5 | 5 | 5 | 5 | 5 | 5 | 5 | 5 |
